Patent publication US11299509B2, “Trigger-activatable sugar conjugates for cancer-selective labeling and targeting” (The Board of Trustees of the University of Illinois, priority 2017, dated 2022)

How the values were obtained:
[1] = test system: HepG2 (liver cancer) cells; assay: Metabolic azido-sugar cell labeling, DBCO-Cy5 detection by flow cytometry; assay type: cell-based; conditions: for Cell labeling (Cy5 fluorescence on the cell surface): 50 μM sugar, 72 h, DBCO-Cy5 25 μM, no UV
Method: (§1) These cells were incubated with Ac4GalNAz (AAG), Ac3GalNAzEt (AAG-Et), and PBS respectively for three days.
(§2) It is known that galactosamine can be preferentially taken up by hepatocytes (a type of liver cells) due to the presence of cell receptors such as asialoglycoprotein receptor (ASGPR). Tetraacetyl-N-azidoacetylgalactosamine (AAG) is relative hydrophobic and can passively diffuse into cells through hydrophobic interactions with the lipid cell membrane while N-azidoacetylgalactosamine (AG) is too hydrophilic to penetrate the lipid barrier by passive diffusion. Therefore, AG can only be taken up by cells through receptor-mediated endocytosis.
(§3) Cells were seeded onto coverslips in a 6-well plate at a cell density of 40 k/well. AAG or AAG derivatives were added and incubated with cells for 72 h. […] The opti-MEM was then removed and cells were washed with PBS three times. Cells were lifted by incubating with trypsin solution (100 μL) at 37° C. for 5 min and transferred to test tubes with addition of 4% PFA solution (0.4 mL). Ten thousand cells per sample were analyzed by flow cytometry and data analysis was performed on the FCS Express software.
(§4) AAG-Nb with a final concentration of 50 μM was added. UV light (10 mW/m^2) was applied for 15 min at the start of incubation, and the cells were further incubated for 72 h. Cells without UV irradiation were continuously incubated for 72 h. Cell samples for flow cytometry were then prepared following the above-mentioned procedures.

Jurkat (lymphoma) cells = assay: as above; assay type: cell-based; conditions: 50 μM sugar, 72 h, DBCO-Cy5 25 μM, no UV
Method: as §1, §2, §3, §4

[2] = test system: MDA-MB-231 (triple negative breast cancer) cells; assay: as above; assay type: cell-based; conditions: 50 μM sugar, 72 h, DBCO-Cy5 25 μM, no UV
Method: as §1, §2, §3, §4

HepG2 liver cancer cells [3] = assay: SDS-PAGE analysis of cells treated with azido-sugars; assay type: cell-based; conditions: 72 h, DBCO-Cy5 25 μM
Method: HepG2 liver cancer cells were seeded onto 6-well plate at a cell density of 40 k/well. Different azido-sugars at different concentrations were added and incubated with cells for 72 h. After removal of medium and multiple washing steps, DBCO-Cy5 (25 μM) in opti-MEM was added and incubated with cells at 37° C. for 1 h. The opti-MEM was then removed and cells were washed with PBS three times. The cells were homogenized in 150 μL of lysis buffer (RIPA) containing protease inhibitor. The lysate was incubated at 4° C. for 30 min, followed by centrifugation at 5000 rcf for 5 min to remove insoluble debris. The total concentration of soluble protein in each sample was determined by bicinchoninic acid (BCA) assay and adjusted to the same concentration. 4× loading buffer was added to each sample and 15 μL samples containing 20 μg protein were loaded onto 10% SDS-PAGE gel after heating at 95° C. The gel was run for 60 min under 150 V. Cy-5 fluorescence was imaged by Imagequant LAS 4010 Luminescent image analyzer and the gel was further stained by coomassie blue

HepG2 liver cancer cells [4] = assay: Confocal imaging of azido-sugar labeled cells; assay type: cell-based; conditions: DBCO-Cy5 stain
Method: Cells were seeded onto coverslips in a 6-well plate at a cell density of 40 k/well. Ac4GalNAz (AAG) or AAG derivatives were added with a final concentration of 50 μM and the cells were incubated at 37° C. for 72 h. The medium was removed and washed with PBS for three times. DBCO-Cy5 (25 μM) in Opti-MEM was then added and the cells were incubated for another 1 h. Then the medium was removed, and the cells were washed with PBS three times. 4% paraformaldehyde (PFA) solution was added to fix the cells for 10 min, followed by staining of cell nucleus with Hoechst (1 μg/mL) and staining of cell membrane with cell mask orange (5 ug/mL) for 10 min. The coverslips were mounted on microscope slides with the addition of ProLong Gold antifade reagent, and the prepared sample was stored in dark for imaging.

HepG2 liver cancer cells [5] = assay: MTT cell viability assay of azido-sugars; assay type: cell-based; conditions: up to 200 μM, 72 h
Method: HepG2 liver cancer cells were seeded onto coverslips in a 6-well plate at a cell density of 40 k/well. Different azido-sugars (AG, AAG, and AAM) at different concentrations (50 μM-200 μM) were added, and the cells were incubated at 37° C. for 72 h. The medium was removed. Then 20 μL 3-(4,5-dimethyl-2-thiazolyl)-2,5-diphenyl-2H-tetrazolium bromide (MTT) (5 mg/mL in PBS) was added and cultured at 37° C. for 4 h. MTT is a substrate that provides a colorimetric signal in response to viable mitochondria. Following solubilization by 100 μl DMSO, absorbance at 570 nm was measured using a plate reader.

physchem = assay: physchem
Method: Two DBCO-doxorubicin conjugates were synthesized with a cathepsin-B responsive peptide linker (VC). A tetraethyleneglycol unit was incorporated to improve the solubility of the conjugates (FIG. 7). A sulfonic acid-containing conjugate, sulfo-DBCO-TEG-VC-DOX was also prepared to further improve the solubility of the conjugate. […] The solubility of the two conjugates were first tested.
DBCO-DM1 conjugates (FIG. 11) were then synthesized through well-established chemistries. A polyethylene glycol 5000 was used in the design to serve the following purpose: 1. […] To increase the hydrophilicity of the drug conjugate such that its passive uptake in non-azide labeled cells can be reduced; 3. To increase the blood circulation half-time (pharmacokinetics) of the molecule in vivo.

[6] = Maximum tolerable dose (MTD) after i.v. injection; conditions: CD-1, mouse, in vivo
Method: (§5) The maximum tolerable dose (MTD) of the two conjugates were also evaluated in CD-1 mice (FIG. 9). […] The sulfo-DBCO-TEG-VC-DOX was injected using PBS with only one time administration.
(§6) The maximum tolerable dose (MTD) of the two conjugates were also evaluated in mice (FIG. 15).
(§7) A model DBCO-paclitaxel conjugate, PTX-TEG-DBCO was prepared through well-established reactions.

CD-1 mice = assay: Maximum tolerable dose (MTD) after i.v. injection; conditions: for Maximum tolerable dose (MTD): single i.v. injection, <20% body weight loss
Method: as §5, §6, §7

[7] = test system: MDA-MB-231 breast cancer cell; assay: MTT assay to evaluate in vitro cytotoxicity; assay type: cell-based; conditions: 72 hours
Method: Standard MTT protocol was followed to evaluate the cytotoxicity of DBCO-drug conjugate. Briefly, MDA-MB-231 cells were seeded in 96-well plate at 3000 cells/well in 100 μL DMEM medium and were allowed to attach overnight. 10 μL DBCO-drug conjugate solution was added into the well to the designated final concentration and incubated at 37° C. for 72 hours. PBS was taken as 100% control. 20 μL 5 mg/mL MTT solution was added to the medium and incubated at 37° C. for 3 hours.

[8] = test system: a variety of breast cancer cell lines; conditions: down to; cited from earlier work

CC(=O)OC[C@H]1OC(OC(C)=O)[C@H](NC(=O)CN=[N+]=[N-])[C@@H](OC(C)=O)[C@H]1OC(C)=O (stereo partly shown) [AAG, Tetraacetyl-N-azidoacetylgalactosamine]
Cell labeling (Cy5 fluorescence on the cell surface) [1]: efficiently labeled
Cell labeling (Cy5 fluorescence on the cell surface) (Jurkat (lymphoma) cells): efficiently labeled
Cell labeling (Cy5 fluorescence on the cell surface) [2]: efficiently labeled

CC(=O)OC[C@H]1OC(OC(C)=O)[C@@H](NC(=O)CN=[N+]=[N-])[C@@H](OC(C)=O)[C@@H]1OC(C)=O (stereo partly shown) [AAM, tetraacetyl-N-azidoacetylmannosamine]
Cell labeling (Cy5 fluorescence on the cell surface) [1]: efficiently labeled
Cell labeling (Cy5 fluorescence on the cell surface) (Jurkat (lymphoma) cells): efficiently labeled
Cell labeling (Cy5 fluorescence on the cell surface) [2]: efficiently labeled

[N-]=[N+]=NCC(=O)N[C@H]1C(O)O[C@H](CO)[C@H](O)[C@@H]1O (stereo partly shown) [AG, N-azidoacetylgalactosamine]
Cell labeling (Cy5 fluorescence on the cell surface) [1]: positively labeled
Concentration dependence of labeling ([1]; concentration increased from 25 μM to 200 μM): increased significantly
Cell labeling (Cy5 fluorescence on the cell surface) (Jurkat (lymphoma) cells): only HepG2 cells were positively labeled
Cell labeling (Cy5 fluorescence on the cell surface) [2]: only HepG2 cells were positively labeled
Azide groups on cell surface membrane protein (SDS-PAGE, Cy5 fluorescence) (HepG2 liver cancer cells [3]): did containing azide groups
Localization of labeling (confocal microscopy) (HepG2 liver cancer cells [4]): mainly localized on cell membrane
Toxicity to cells (MTT) (HepG2 liver cancer cells [5]): not toxic

COc1cccc2c1C(=O)c1c(O)c3c(c(O)c1C2=O)C[C@@](O)(C(=O)CO)C[C@@H]3O[C@H]1C[C@H](NC(=O)OCc2ccc(NC(=O)C(CCCNC(N)=O)NC(=O)[C@@H](NC(=O)CCOCCOCCOCCOCCNC(=O)CCC(=O)N3Cc4ccccc4C#Cc4ccccc43)C(C)C)cc2)[C@H](O)[C@H](C)O1 (stereo partly shown) [DBCO-TEG-VC-DOX]
solubility (physchem; aqueous buffer): < 50 µM
solubility (physchem; aqueous with cosolvent or surfactant or cyclodextrin): ~3500 µg/mL
MTD [6]: > 204 mg/kg
Body weight change (CD-1 mice; mouse, in vivo): No significant body weight loss

COc1cc2cc(c1Cl)N(C)C(=O)C[C@H](OC(=O)[C@H](C)N(C)C(=O)CCS)[C@]1(C)O[C@H]1[C@H](C)[C@@H]1C[C@@](O)(NC(=O)O1)[C@H](OC)/C=C/C=C(\C)C2 [DM1, Mertansine]
IC50 [7]: ~0.03 nM
in vitro IC50 value [8]: tens

CC(=O)O[C@H]1C(=O)[C@@]2(C)C([C@H](OC(=O)c3ccccc3)[C@]3(O)C[C@H](OC(=O)[C@H](OC(=O)COCCOCCOCCOCCNC(=O)CCC(=O)N4Cc5ccccc5C#Cc5ccccc54)[C@@H](NC(=O)c4ccccc4)c4ccccc4)C(C)=C1C3(C)C)[C@]1(OC(C)=O)CO[C@@H]1C[C@@H]2O (stereo partly shown) [PTX-TEG-DBCO]
MTD ([6]; iv): > 200 mg/kg

N.N.[Cl][Pt][Cl] [cisplatin, reference compound]
Maximum tolerable dose (MTD) (CD-1 mice; CD-1 mice): about 5 mg/kg
Maximum tolerable dose (MTD) (CD-1 mice; CD-1 mice, listed as cis-platin): 5 mg/kg

COc1cccc2c1C(=O)c1c(O)c3c(c(O)c1C2=O)C[C@@](O)(C(=O)CO)C[C@@H]3O[C@H]1C[C@H](NC(=O)OCc2ccc(NC(=O)C(CCCNC(N)=O)NC(=O)[C@@H](NC(=O)CCC(=O)NCCOCCOCCOCCOCCC(=O)NCC(C(=O)NCCC(=O)N3Cc4ccccc4C#Cc4ccccc43)S(=O)(=O)O)C(C)C)cc2)[C@H](O)[C@H](C)O1 (stereo partly shown) [sulfo-DBCO-TEG-VC-DOX]
solubility (physchem; aqueous buffer): 8000 to 10000 µg/mL
MTD ([6]; iv): > 120 mg/kg
Body weight change (CD-1 mice; CD-1 mice, one time administration in PBS, up to highest dose used): No body weight decrease
